In US9169240B2, “Ketone linked benzothiazole inhibitors of endothelial lipase” (BRISTOL-MYERS SQUIBB COMPANY, priority 2012, dated 2015):

Target: Endothelial lipase (EL) (Homo sapiens (Human), UniProt Q9Y5X9)
Assay: Endothelial lipase (EL) activity assay with fluorescent substrate A10070 in DMPG vesicles
Assay type: biochemical
Protocol: Endothelial lipase activity was measured using a fluorescent substrate, A10070, (Invitrogen, CA) doped into an artificial vesicle containing DMPG (Avanti Polar Lipids) as the excipient. Vesicles were prepared by combining 285 μL of 1 mM DMPG in a 1:1 mixture of MeOH and CHCl3 with 15 μL of 1 mM A10070 in a 1:1 mixture of MeOH and CHCl3. The mixture was dried under nitrogen and resuspended in 150 μL of 50 mM HEPES pH 8.0 buffer containing 100 mM NaCl and 0.2 mM EDTA. The sample was allowed to sit at rt for 15 min and then was sonicated 3×4 mins on ice with a Branson Sonicator using duty cycle 1. This preparation provides vesicles with a mole fraction of 0.05 for the FRET substrate.
The enzymatic assay was measured using white, opaque 96-well half area plates. Each well contained 60 μL of assay buffer (50 mM HEPES pH 8.0, 50 mM NaCl and 1 mM CaCl2) and 2 ul of a DMSO solution containing compound of interest. Conditioned media obtained from HT-1080 cells, which were transformed by RAGE technology (Athersys) to overexpress endogenous EL, was added and the reaction was allowed to incubate for 20 min at 37° C. with gentle agitation. The reaction was started by the addition of 20 μL of a 1:4 dilution of vesicles. The final total reaction volume was 100 μL. The reaction rates were measured on a Gemini plate reader with an excitation wavelength of 488 nm and an emission of 530 nm. Readings were taken every 20 seconds for 10 min with agitation between each reading. The slope of the linear portion of the readout was used to calculate the rate of the reaction.

Endothelial lipase (EL), sequence (Q9Y5X9 21-500): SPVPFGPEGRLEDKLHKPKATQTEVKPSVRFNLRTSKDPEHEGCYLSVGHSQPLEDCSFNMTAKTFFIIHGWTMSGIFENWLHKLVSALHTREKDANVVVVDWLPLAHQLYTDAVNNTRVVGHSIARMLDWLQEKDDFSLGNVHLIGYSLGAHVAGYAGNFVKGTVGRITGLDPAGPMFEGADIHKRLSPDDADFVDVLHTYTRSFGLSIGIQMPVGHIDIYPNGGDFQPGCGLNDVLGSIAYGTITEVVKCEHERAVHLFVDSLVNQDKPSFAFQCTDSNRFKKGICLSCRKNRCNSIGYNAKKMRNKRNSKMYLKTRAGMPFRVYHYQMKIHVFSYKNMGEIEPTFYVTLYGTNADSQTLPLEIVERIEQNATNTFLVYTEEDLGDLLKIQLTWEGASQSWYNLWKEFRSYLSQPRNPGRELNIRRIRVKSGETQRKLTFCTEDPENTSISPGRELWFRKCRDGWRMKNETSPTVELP

SMILES	IC50 [nM]
O=C(c1nnc(N2CCN(c3ccc(C(F)(F)F)cc3)CC2)o1)c1nc2ccc(-c3ccccc3)cc2s1 [Example 88, (6-Phenylbenzo[d]thiazol-2-yl)(5-(4-(4-(trifluoromethyl)phenyl)piperazin-1-yl)-1,3,4-oxadiazol-2-yl)methanone]	494
O=C(c1nnc(NC2CCCNC2=O)o1)c1nc2ccc(-c3ccccc3)cc2s1 (single isomer, unassigned) [Example 77, 3-((5-(6-phenylbenzo[d]thiazole-2-carbonyl)-1,3,4-oxadiazol-2-yl)amino)piperidin-2-one]	140
COC(=O)N[C@H]1CC[C@H](c2nnc(C(=O)c3nc4ccc(-c5ccccc5)cc4s3)o2)CC1 [Example 6, methyl ((1R,4R)-4-(5-(6-phenylbenzo[d]thiazole-2-carbonyl)-1,3,4-oxadiazol-2-yl)cyclohexyl)carbamate]	99
O=C(c1nnc(NCCc2ccncc2)o1)c1nc2ccc(-c3ccccc3)cc2s1 [Example 73, (6-phenylbenzo[d]thiazol-2-yl)(5-((2-(pyridin-4-yl)ethyl)amino)-1,3,4-oxadiazol-2-yl)methanone]	180
NS(=O)(=O)CCNc1nnc(C(=O)c2nc3ccc(-c4ccccc4)cc3s2)o1 [Example 72, 2-((5-(6-phenylbenzo[d]thiazole-2-carbonyl)-1,3,4-oxadiazol-2-yl)amino)ethanesulfonamide]	88
O=C(c1nnc(N2CC[C@H](c3ccccc3)C2)o1)c1nc2ccc(-c3ccccc3)cc2s1 [Example 80, (R)-(6-phenylbenzo[d]thiazol-2-yl)(5-(3-phenylpyrrolidin-1-yl)-1,3,4-oxadiazol-2-yl)methanone]	450
COc1ccc(CNc2nnc(C(=O)c3nc4ccc(-c5ccccc5)cc4s3)o2)c(OC)c1 [Example 69]	310
COCCNc1nnc(C(=O)c2nc3ccc(-c4ccccc4)cc3s2)o1 [Example 52, (5-((2-methoxyethyl)amino)-1,3,4-oxadiazol-2-yl)(6-phenylbenzo[d]thiazol-2-yl)methanone]	110
O=C(c1nnc(N[C@H]2CCN(CC(F)(F)F)C2=O)o1)c1nc2ccc(-c3ccccc3)cc2s1 [Example 91, (S)-3-((5-(6-Phenylbenzo[d]thiazole-2-carbonyl)-1,3,4-oxadiazol-2-yl)amino)-1-(2,2,2-trifluoroethyl)pyrrolidin-2-one]	490
O=C(c1nnc(N2CC[C@@H](c3ccccc3)C2)o1)c1nc2ccc(-c3ccccc3)cc2s1 [Example 79, (S)-(6-phenylbenzo[d]thiazol-2-yl)(5-(3-phenylpyrrolidin-1-yl)-1,3,4-oxadiazol-2-yl)methanone]	310
COC(=O)[C@H](COC(C)(C)C)Nc1nnc(C(=O)c2nc3ccc(-c4ccc(F)cc4)cc3s2)o1 [Example 61, (S)-methyl 3-(tert-butoxy)-2-((5-(6-(4-fluorophenyl)benzo[d]thiazole-2-carbonyl)-1,3,4-oxadiazol-2-yl)amino)propanoate]	140

These reach a lower IC50. Values come first.

IC50 [nM]	SMILES
< 10	CC(C)(C)OC(=O)N1CCC(c2nnc(C(=O)c3nc4ccc(-c5ccc(F)cc5)cc4s3)o2)CC1 [Example 18, tert-butyl 4-(5-(6-(4-fluorophenyl)benzo[d]thiazole-2-carbonyl)-1,3,4-oxadiazol-2-yl)piperidine-1-carboxylate]
25	NC(=O)NCc1nnc(C(=O)c2nc3ccc(-c4ccccc4)cc3s2)o1 [Example 49, 1-((5-(6-Phenylbenzo[d]thiazole-2-carbonyl)-1,3,4-oxadiazol-2-yl)methyl)urea]
< 10	O=C(c1nnc(CCc2ncc(-c3ccccc3)o2)o1)c1nc2ccc(-c3ccccc3)cc2s1 [Example 9, (6-phenylbenzo[d]thiazol-2-yl)(5-(2-(5-phenyloxazol-2-yl)ethyl)-1,3,4-oxadiazol-2-yl)methanone]
< 10	O=C(c1nnc(C2CCN(c3ncccn3)CC2)o1)c1nc2ccc(-c3ccccc3)cc2s1 [Example 7, (6-phenylbenzo[d]thiazol-2-yl)(5-(1-(pyrimidin-2-yl)piperidin-4-yl)-1,3,4-oxadiazol-2-yl)methanone]
< 10	O=C(c1nnc(C2CCN(c3ccc(C(F)(F)F)cc3)CC2)o1)c1nc2ccc(-c3ccccc3)cc2s1 [Example 13, (6-phenylbenzo[d]thiazol-2-yl)(5-(1-(4-(trifluoromethyl)phenyl)piperidin-4-yl)-1,3,4-oxadiazol-2-yl)methanone]
< 10	NC(=O)c1ccc(-c2ccc3nc(C(=O)c4nnc(N[C@H]5CCNC5=O)o4)sc3c2)cc1 [Example 51, (S)-4-(2-(5-((2-Oxopyrrolidin-3-yl)amino)-1,3,4-oxadiazole-2-carbonyl)benzo[d]thiazol-6-yl)benzamide]
36	O=C(c1nnc(NCCc2cccnc2)o1)c1nc2ccc(-c3ccccc3)cc2s1 [Example 76, (6-phenylbenzo[d]thiazol-2-yl)(5-((2-(pyridin-3-yl)ethyl)amino)-1,3,4-oxadiazol-2-yl)methanone]
46	O=C(c1nnc(N[C@@H]2CCNC2=O)o1)c1nc2ccc(-c3ccccc3)cc2s1 [Example 56, (R)-3-((5-(6-phenylbenzo[d]thiazole-2-carbonyl)-1,3,4-oxadiazol-2-yl)amino)pyrrolidin-2-one]
22	CN1CCC(Nc2nnc(C(=O)c3nc4ccc(-c5ccccc5)cc4s3)o2)C1=O (centres unmarked) [Example 71, 1-methyl-3-((5-(6-phenylbenzo[d]thiazole-2-carbonyl)-1,3,4-oxadiazol-2-yl)amino)pyrrolidin-2-one]
11	O=C(c1nnc(CCc2ncc[nH]2)o1)c1nc2ccc(-c3ccccc3)cc2s1 [Example 8, (5-(2-(1H-imidazol-2-yl)ethyl)-1,3,4-oxadiazol-2-yl)(6-phenylbenzo[d]thiazol-2-yl)methanone]
27	O=C(c1nnc(N[C@H](CCO)C(=O)O)o1)c1nc2ccc(-c3ccccc3)cc2s1 [Example 68, (R)-4-hydroxy-2-((5-(6-phenylbenzo[d]thiazole-2-carbonyl)-1,3,4-oxadiazol-2-yl)amino)butanoic acid]
11	O=C(c1nnc(N(Cc2ccccc2)[C@H]2CCNC2=O)o1)c1nc2ccc(-c3ccccc3)cc2s1 [Example 87, (S)-3-(Benzyl(5-(6-phenylbenzo[d]thiazole-2-carbonyl)-1,3,4-oxadiazol-2-yl)amino)pyrrolidin-2-one]
22	O=C(c1nnc(N[C@H]2CCOC2=O)o1)c1nc2ccc(-c3ccccc3)cc2s1 [Example 57, (S)-3-((5-(6-phenylbenzo[d]thiazole-2-carbonyl)-1,3,4-oxadiazol-2-yl)amino)dihydrofuran-2(3H)-one]
31	CC(C)(C)OC(=O)N[C@H]1CC[C@H](c2nnc(C(=O)c3nc4ccc(-c5ccccc5)cc4s3)o2)CC1 [Example 16, tert-butyl ((1r,4r)-4-(5-(6-phenylbenzo[d]thiazole-2-carbonyl)-1,3,4-oxadiazol-2-yl)cyclohexyl)carbamate]
< 10	O=C(c1nnc(N[C@H]2CCNC2=O)o1)c1nc2ccc(-c3ccc(OC(F)F)cc3)cc2s1 [Example 82, (S)-3-((5-(6-(4-(difluoromethoxy)phenyl)benzo[d]thiazole-2-carbonyl)-1,3,4-oxadiazol-2-yl)amino)pyrrolidin-2-one]
